Reference: PubChem BioAssay (NCI)
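These data come from cells grown in 96-well plates and exposed to compound for 48 hours at five concentrations. Abbreviation: GI50, concentration required for 50% inhibition of growth. The concentration for full growth arrest is given as TGI.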

Tests used:
Experiment in all cases: NCI tumour cell line growth inhibition, 48 h
HCT-116 colon = test system: HCT-116 colon
SNB-19 CNS = test system: SNB-19 CNS
A498 renal = test system: A498 renal
OVCAR-3 ovarian = test system: OVCAR-3 ovarian
MDA-MB-435 = test system: MDA-MB-435
A549 NSCLC = test system: A549 NSCLC
CCRF-CEM leukemia = test system: CCRF-CEM leukemia
UACC-62 melanoma = test system: UACC-62 melanoma
HOP-92 NSCLC = test system: HOP-92 NSCLC
K-562 leukemia = test system: K-562 leukemia

For `N#CC1=C(N)Oc2c(ccc3ccccc23)C1c1cc(=O)oc2ccc(Cl)cc12` (stereo not given), the GI50 (HCT-116 colon) was 406 nM, the TGI (HCT-116 colon) was 23800 nM and the GI50 (SNB-19 CNS) was 651 nM. The TGI (SNB-19 CNS) was > 100000 nM, the GI50 (A498 renal) was 805 nM and the TGI (A498 renal) was 42200 nM. For the same compound, the GI50 (OVCAR-3 ovarian) was 386 nM, the TGI (OVCAR-3 ovarian) was 12300 nM and the GI50 (MDA-MB-435) was 244 nM. For the same compound, the TGI (MDA-MB-435) was 947 nM, the GI50 (A549 NSCLC) was 1380 nM and the TGI (A549 NSCLC) was > 100000 nM. The GI50 (CCRF-CEM leukemia) was 407 nM, the TGI (CCRF-CEM leukemia) was 58100 nM and the GI50 (UACC-62 melanoma) was 470 nM. The TGI (UACC-62 melanoma) was 41100 nM, the GI50 (HOP-92 NSCLC) was 556 nM and the TGI (HOP-92 NSCLC) was 42000 nM. The GI50 (K-562 leukemia) was 375 nM and the TGI (K-562 leukemia) was > 100000 nM.
